The values below come from PubChem BioAssay (NCI).

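48-hour exposure; five concentrations; linearly interpolated endpoints. Here, GI50 denotes the concentration required for 50% inhibition of growth. At the TGI there is no net growth.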 A value given as a limit tells only on which side of the number the result lay.

Test systems include SN12C renal; NCI-H226 lung; HOP-92 NSCLC; MALME-3M melanoma; OVCAR-8 ovarian; M14 melanoma; NCI-H23 lung; TK-10 renal; SF-268 CNS; MOLT-4 leukemia.
What all share (experiment): DTP human tumour cell line panel, 48 h

The term GI50 denotes the concentration giving 50% growth inhibition. What is called TGI is the concentration giving total growth inhibition. A low value points to more potent growth arrest. Turning to `CC(=O)OCC1OC(n2ccc(=O)[nH]c2=O)C(OC(C)=O)C1OC(C)=O` (stereo not drawn), the GI50 with SN12C renal, with NCI-H226 lung, in the test on HOP-92 NSCLC, in the test with MALME-3M melanoma, in the test on OVCAR-8 ovarian and in the test on M14 melanoma was above 100 µM each time. For the same molecule, the GI50 in the test with NCI-H23 lung, in the test on TK-10 renal and in the test with SF-268 CNS was above 100 µM throughout. The TGI with SN12C renal, in the test with NCI-H226 lung, with HOP-92 NSCLC, with MALME-3M melanoma, in the test with OVCAR-8 ovarian and with M14 melanoma was above 100 µM each time. In addition, the TGI with NCI-H23 lung, with TK-10 renal and with SF-268 CNS was above 100 µM each time.

Turning to `C=C1CC[C@@H]2[C@](C)(COC(C)=O)[C@H](OC(C)=O)CC[C@@]2(C)[C@@H]1CC(Nc1ccc(S(=O)(=O)Nc2nccc(C)n2)cc1)C1=CCOC1=O` (stereo partly drawn), the GI50 in the test with SN12C renal is 2.64 µM; with NCI-H226 lung, 2.33 µM; in the test with HOP-92 NSCLC, 6.24 µM; in the test on OVCAR-8 ovarian, 2.61 µM; with M14 melanoma, 2.81 µM; with MOLT-4 leukemia it was 3.22 µM. In addition, the figures for the GI50 with NCI-H23 lung, in the test with TK-10 renal and with SF-268 CNS were 3.78 µM, 4.94 µM and 6.19 µM, respectively. Further, the total growth inhibition concentration (TGI) with SN12C renal came to 6.17 µM; in the test with NCI-H226 lung it was 5.91 µM; with HOP-92 NSCLC, 18.9 µM; with OVCAR-8 ovarian, 8.56 µM; in the test on M14 melanoma, 10.8 µM; in the test with MOLT-4 leukemia, 17.9 µM. Further, the TGI in the test on NCI-H23 lung worked out at 16 µM; in the test with TK-10 renal, 15.8 µM; with SF-268 CNS, 20.9 µM.

Consider `COC(=O)C1C2C=CC(C2)N1[C@@H](C)c1ccccc1` (stereo partly drawn), for which the TGI in the test on SN12C renal, with HOP-92 NSCLC, with MALME-3M melanoma, in the test with OVCAR-8 ovarian, with M14 melanoma and in the test with NCI-H23 lung was above 100 µM throughout. The concentration for total growth inhibition (TGI) in the test with TK-10 renal and in the test with SF-268 CNS was above 100 µM each time.

As for `O=NNc1nc(-c2cccnc2)nc2ccccc12`, the TGI in the test with SN12C renal, in the test on NCI-H226 lung, in the test with OVCAR-8 ovarian, in the test with M14 melanoma, in the test with MOLT-4 leukemia and in the test with NCI-H23 lung was above 100 µM throughout. Further, the concentration for total growth inhibition (TGI) in the test on TK-10 renal and in the test on SF-268 CNS was above 100 µM throughout.

As to `COc1c(N2CCN(CN3C(=O)C(=Nc4ccc(S(=O)(=O)Nc5ncccn5)cc4)c4ccccc43)C(C)C2)c(F)cc2c(=O)c(C(=O)O)cn(C3CC3)c12` (stereo not drawn), the GI50 in the test on SN12C renal is above 50 µM; in the test with NCI-H226 lung, 32.1 µM; in the test with OVCAR-8 ovarian, 21.4 µM; in the test on M14 melanoma, above 50 µM; in the test on MOLT-4 leukemia it was 17 µM; with NCI-H23 lung it was 19.8 µM. For the same molecule, the GI50 with TK-10 renal is 11.9 µM; with SF-268 CNS it was 44.1 µM. For the same molecule, the concentration for total growth inhibition (TGI) in the test with SN12C renal, in the test on NCI-H226 lung, in the test on OVCAR-8 ovarian, in the test on M14 melanoma, in the test with MOLT-4 leukemia and in the test on NCI-H23 lung was above 50 µM each time. Besides, the TGI with TK-10 renal was 43.7 µM; in the test with SF-268 CNS, above 50 µM.

In the case of `CCCCn1cnc2c(SC)ncnc21`, the TGI in the test with SN12C renal, in the test on HOP-92 NSCLC, in the test with MALME-3M melanoma, with OVCAR-8 ovarian, with M14 melanoma and in the test with MOLT-4 leukemia was above 100 µM in each case. The TGI in the test on NCI-H23 lung, in the test with TK-10 renal and in the test on SF-268 CNS was above 100 µM each time.

Take `CC(=O)Oc1ccc(O)c(O)c1C/C=C(\C)CC/C=C(\C)CC/C=C(\C)CCC=C(C)C`: the total growth inhibition concentration (TGI) in the test on SN12C renal is 0.868 µM; in the test on NCI-H226 lung, 2.27 µM; in the test on HOP-92 NSCLC it was 0.886 µM; in the test with MALME-3M melanoma, 0.782 µM; in the test on OVCAR-8 ovarian it was 1.79 µM; with M14 melanoma, 4.98 µM. Further, the TGI in the test with NCI-H23 lung was 1.47 µM; in the test with TK-10 renal, 2.6 µM; in the test on SF-268 CNS, 2.18 µM.

As for `CC(=O)OC1c2ccccc2CCCCCCC12OCCO2` (stereo not drawn), the TGI with SN12C renal, in the test on NCI-H226 lung, in the test with MALME-3M melanoma, in the test on OVCAR-8 ovarian, with M14 melanoma and with MOLT-4 leukemia was above 100 µM in each case. The concentration for total growth inhibition (TGI) in the test on NCI-H23 lung, with TK-10 renal and in the test on SF-268 CNS was above 100 µM in each case.

Turning to `COc1ccc(O)c(C#N)c1C#N`, the TGI in the test with SN12C renal, with NCI-H226 lung, with MALME-3M melanoma, in the test on OVCAR-8 ovarian, with M14 melanoma and in the test with MOLT-4 leukemia was above 100 µM in each case. Further, the TGI with NCI-H23 lung, in the test on TK-10 renal and in the test with SF-268 CNS was above 100 µM throughout.

Turning to `S=c1[nH]c2ccc(Br)cc2c(=S)n1-c1ccccc1`, the TGI in the test on SN12C renal was 98.7 µM; in the test on NCI-H226 lung, 83.6 µM; in the test on HOP-92 NSCLC it was 78.5 µM; in the test with MALME-3M melanoma, 32.1 µM; in the test on OVCAR-8 ovarian it was above 100 µM; with M14 melanoma it was 98.6 µM. Moreover, the TGI is 65.6 µM with NCI-H23 lung, above 100 µM in the test on TK-10 renal and above 100 µM in the test on SF-268 CNS.

Regarding `CC(C)NC(=O)OCCS(=O)c1c(Cl)c(Cl)nn1C` (stereo not drawn), the TGI with SN12C renal is above 100 µM; in the test on NCI-H226 lung, above 100 µM; in the test on M14 melanoma, 39.4 µM; with MOLT-4 leukemia it was above 100 µM; with NCI-H23 lung it was above 100 µM; in the test on TK-10 renal, above 100 µM. Moreover, in the test on SF-268 CNS, the total growth inhibition concentration (TGI) was above 100 µM.

Regarding `O=c1cc(-c2ccccc2)c2cc3c(=O)ccoc3cc2o1`, the TGI in the test with SN12C renal, in the test on NCI-H226 lung, in the test on MALME-3M melanoma, in the test with OVCAR-8 ovarian, with M14 melanoma and in the test on MOLT-4 leukemia was above 100 µM in each case. For the same molecule, the TGI with NCI-H23 lung, in the test with TK-10 renal and with SF-268 CNS was above 100 µM in each case.

With `O=C(O)c1cc(=O)c2[nH]c3ccccc3c2s1`, the TGI in the test on SN12C renal, with HOP-92 NSCLC, in the test with MALME-3M melanoma, with OVCAR-8 ovarian, in the test with M14 melanoma and in the test on MOLT-4 leukemia was above 100 µM in each case. For the same molecule, the total growth inhibition concentration (TGI) in the test on NCI-H23 lung, in the test with TK-10 renal and in the test on SF-268 CNS was above 100 µM throughout.
